Test results published in patent US20250243488A1, “METHODS OF MODULATING PROGRANULIN EXPRESSION USING ANTISENSE OLIGONUCLEOTIDES TARGETING REGULATORY RNAS” (Camp4 Therapeutics Corporation, priority 2022, published 2025).
Oligonucleotides are written 5' to 3', each unit as a sugar letter and its base; * is a phosphorothioate linkage, no mark a phosphodiester; rarer units and linkages stand in square brackets, end groups in braces. Plain capitals give the bases only. e = 2'-O-(2-methoxyethyl) (MOE); [5mC] = 5-methylcytosine

Tested on: mGrn mRNA
Test: mGrn mRNA qPCR in Neuro2a cells transfected with ASOs
Type: cell-based, mouse
Details: Table 14; Neuro2a, 100 nM, 48 hours; normalized to sNTC3
Protocol: 57 ASOs targeting the Grn promoter (− strand) were screened in Neuro2a cells. Neuro2a cells were transfected with 100 nM of each of the ASOs listed in Table 14 and cells were harvested 48 hours later for Grn mRNA quantification using qPCR. Housekeeping genes for normalization were Gapdh and Ppia. Relative Grn mRNA levels were normalized to mRNA extracted from cells treated with sNTC3 (steric nontargeting control).
Next, 26 ASOs based on parent ASOs CO-3544 and CO-3595 were designed with different modifications and base walking. Neuro2a cells were transfected with either […] or 160 nM of each of the ASOs listed in Table 15, and cells were harvested 48 hours later for mGrn mRNA quantification using qPCR. As controls, cells were treated with sNTC3 or no ASO. Housekeeping genes for normalization were Gapdh and Ppia. Relative Grn mRNA levels were normalized to mRNA extracted from cells treated with sNTC3.
CO-3544 was modified to include PO/PS bonds and the efficacy in upregulating mGrn mRNA was determined.
Similarly, CO-3595 was modified to include varying PO/PS internucleotide bonds and the efficacy of these ASOs in upregulating mGrn mRNA was determined in Neuro2A cells.

| Substance | mGRN mRNA FC [FC] |
| --- | --- |
| CO-3548: ASO targeting the Grn promoter (− strand) (antisense e[5mC]*eA*e[5mC]*eT*eT*eT*eT*e[5mC]*e[5mC]*e[5mC]*e[5mC]*e[5mC]*eG*e[5mC]*eT*eG*e[5mC]*e[5mC]*eT*e[5mC]) | 1.5 |
| CO-3549: ASO targeting the Grn promoter (− strand) (antisense eA*eG*e[5mC]*eT*eA*eA*eT*eT*eT*e[5mC]*e[5mC]*eG*e[5mC]*e[5mC]*eT*e[5mC]*eT*e[5mC]*e[5mC]*e[5mC]) | 1.4 |
| CO-3550: ASO targeting the Grn promoter (− strand) (antisense eG*eG*eT*eT*eG*eT*eG*eT*e[5mC]*eA*eG*e[5mC]*eT*eT*eT*eA*eT*eT*eT*e[5mC]) | 0.9 |
| CO-3551: ASO targeting the Grn promoter (− strand) (antisense eG*e[5mC]*eG*eT*eG*eA*eT*eG*eG*e[5mC]*eT*eG*eA*eG*eT*e[5mC]*e[5mC]*e[5mC]*eT*eG) | 1.5 |
| CO-3552: ASO targeting the Grn promoter (− strand) (antisense e[5mC]*e[5mC]*eT*eT*eG*eG*e[5mC]*e[5mC]*e[5mC]*e[5mC]*e[5mC]*eA*eG*eA*eG*e[5mC]*eT*e[5mC]*eA*eA) | 1.1 |
| CO-3553: ASO targeting the Grn promoter (− strand) (antisense e[5mC]*eA*eA*eG*eT*eG*eT*eT*e[5mC]*eT*e[5mC]*eT*eG*e[5mC]*eG*eG*e[5mC]*eG*eG*e[5mC]) | 1.3 |
| CO-3554: ASO targeting the Grn promoter (− strand) (antisense eG*eG*e[5mC]*eT*e[5mC]*eT*eT*eT*e[5mC]*eT*e[5mC]*eT*eT*eT*e[5mC]*eG*eG*eA*e[5mC]*eG) | 1.2 |
| CO-3555: ASO targeting the Grn promoter (− strand) (antisense e[5mC]*eT*e[5mC]*eT*eT*eG*eT*e[5mC]*e[5mC]*eG*eT*eA*e[5mC]*eT*eT*e[5mC]*e[5mC]*e[5mC]*eA*e[5mC]) | 1.5 |
| CO-3556: ASO targeting the Grn promoter (− strand) (antisense eA*eG*eG*eA*e[5mC]*eA*eG*eG*eA*eA*e[5mC]*e[5mC]*eA*e[5mC]*e[5mC]*e[5mC]*e[5mC]*eA*e[5mC]*eT) | 1.3 |
| CO-3557: ASO targeting the Grn promoter (− strand) (antisense eT*eG*eT*e[5mC]*eG*eG*eA*eA*eA*eG*e[5mC]*eT*eG*e[5mC]*eA*eG*eG*e[5mC]*e[5mC]*eT) | 1.6 |
| CO-3558: ASO targeting the Grn promoter (− strand) (antisense eT*e[5mC]*e[5mC]*e[5mC]*e[5mC]*e[5mC]*e[5mC]*e[5mC]*eA*eA*eT*eA*eA*eG*eA*eG*eG*e[5mC]*eT*eT) | 1.2 |
| CO-3559: ASO targeting the Grn promoter (− strand) (antisense eG*eT*eT*eG*eT*eA*eG*eA*eG*eA*e[5mC]*eA*e[5mC]*e[5mC]*eT*e[5mC]*e[5mC]*e[5mC]*e[5mC]*eG) | 1.4 |
| CO-3560: ASO targeting the Grn promoter (− strand) (antisense eT*eG*eA*eT*eG*e[5mC]*eA*e[5mC]*eT*eA*eA*e[5mC]*eG*eA*eG*eG*eT*eT*eG*eT) | 1.2 |
| CO-3561: ASO targeting the Grn promoter (− strand) (antisense e[5mC]*e[5mC]*eT*e[5mC]*eT*eT*eG*eA*eA*eA*e[5mC]*eT*e[5mC]*e[5mC]*e[5mC]*e[5mC]*eT*eA*eGeG) | 1.3 |
| CO-3562: ASO targeting the Grn promoter (− strand) (antisense eG*e[5mC]*e[5mC]*eT*eG*eT*eG*e[5mC]*eA*eA*eT*eT*eG*eA*eGeG*eG*eT*e[5mC]*e[5mC]) | 1.1 |
| CO-3563: ASO targeting the Grn promoter (− strand) (antisense eG*e[5mC]*eA*eG*eA*e[5mC]*eA*eA*eT*e[5mC]*eT*e[5mC]*e[5mC]*e[5mC]*e[5mC]*eG*eG*e[5mC]*eT*eA) | 1.5 |
| CO-3564: ASO targeting the Grn promoter (− strand) (antisense eA*e[5mC]*eG*e[5mC]*eA*eG*eG*eT*eA*eG*eG*eA*eG*eG*eA*e[5mC]*e[5mC]*e[5mC]*eT*e[5mC]) | 1.1 |
| CO-3565: ASO targeting the Grn promoter (− strand) (antisense eG*eA*eG*e[5mC]*eT*eG*eA*e[5mC]*e[5mC]*eG*e[5mC]*e[5mC]*eA*eG*eA*eT*eG*e[5mC]*e[5mC]*eT) | 1.6 |
| CO-3566: ASO targeting the Grn promoter (− strand) (antisense eG*e[5mC]*eT*eA*eA*eT*eG*eG*eA*eA*eA*eT*eT*eG*eA*eG*eG*eT*eG*eG) | 1.1 |

| Substance | mGRN mRNA FC [FC] |
| --- | --- |
| CO-3567: ASO targeting the Grn promoter (− strand) (antisense e[5mC]*e[5mC]*e[5mC]*eT*eG*eG*eA*eT*e[5mC]*eT*e[5mC]*e[5mC]*eG*eA*eG*e[5mC]*eA*eA*eT*eG) | 1.1 |
| CO-3568: ASO targeting the Grn promoter (− strand) (antisense e[5mC]*e[5mC]*eG*e[5mC]*e[5mC]*eT*e[5mC]*eT*eA*e[5mC]*eG*eT*eA*eG*eA*e[5mC]*eA*eA*eG*eT) | 1.2 |
| CO-3569: ASO targeting the Grn promoter (− strand) (antisense eG*eG*eA*eA*eT*eG*eT*eG*eA*eA*e[5mC]*eT*eG*eA*eG*eT*eA*eG*eA*eA) | 1.2 |
| CO-3570: ASO targeting the Grn promoter (− strand) (antisense e[5mC]*eT*eA*eA*eT*e[5mC]*eA*e[5mC]*eA*eT*eG*eA*eT*e[5mC]*e[5mC]*e[5mC]*eT*eA*eG*eA) | 1.2 |
| CO-3571: ASO targeting the Grn promoter (− strand) (antisense eG*e[5mC]*eT*eA*eT*eG*eT*eT*eG*eT*e[5mC]*eA*eT*eA*eT*eG*eA*eT*eT*e[5mC]) | 1.4 |
| CO-3572: ASO targeting the Grn promoter (− strand) (antisense eG*e[5mC]*e[5mC]*eG*e[5mC]*e[5mC]*eA*eG*eA*eA*e[5mC]*e[5mC]*e[5mC]*eA*eA*eA*e[5mC]*e[5mC]*eA*eG) | 1.3 |
| CO-3573: ASO targeting the Grn promoter (− strand) (antisense eG*eT*e[5mC]*eT*e[5mC]*eA*eT*e[5mC]*eT*e[5mC]*eT*eG*e[5mC]*eA*eA*e[5mC]*eA*e[5mC]*eT*e[5mC]) | 1.4 |
| CO-3574: ASO targeting the Grn promoter (− strand) (antisense eG*e[5mC]*eT*e[5mC]*eT*e[5mC]*e[5mC]*eT*eA*eA*e[5mC]*eT*eG*eT*eG*eG*eG*eT*eG*e[5mC]) | 1.3 |
| CO-3575: ASO targeting the Grn promoter (− strand) (antisense eG*eT*eA*eA*eA*e[5mC]*eG*eA*e[5mC]*e[5mC]*eT*eT*eG*eA*eA*e[5mC]*eG*e[5mC]*eG*eT) | 1.2 |
| CO-3576: ASO targeting the Grn promoter (− strand) (antisense eA*eT*eG*eT*eA*e[5mC]*eA*eA*eA*eA*eG*eT*e[5mC]*e[5mC]*e[5mC]*eG*eA*eT*e[5mC]*e[5mC]) | 1.2 |
| CO-3577: ASO targeting the Grn promoter (− strand) (antisense e[5mC]*eT*eG*e[5mC]*e[5mC]*eA*eG*eG*e[5mC]*eG*eT*eG*eA*eA*eG*eA*eG*eA*e[5mC]*eA) | 1.1 |
| CO-3578: ASO targeting the Grn promoter (− strand) (antisense eT*eT*e[5mC]*e[5mC]*eA*eA*e[5mC]*eT*eG*eG*eT*eT*eT*e[5mC]*eG*eA*eG*eT*e[5mC]*e[5mC]) | 1.0 |
| CO-3579: ASO targeting the Grn promoter (− strand) (antisense eG*eA*e[5mC]*eT*eA*eT*eT*eT*eA*eT*e[5mC]*eT*eT*e[5mC]*eA*e[5mC]*e[5mC]*e[5mC]*eT*e[5mC]) | 1.2 |
| CO-3580: ASO targeting the Grn promoter (− strand) (antisense eG*e[5mC]*e[5mC]*eA*e[5mC]*eT*e[5mC]*eT*e[5mC]*e[5mC]*e[5mC]*e[5mC]*eA*eT*eT*e[5mC]*eA*eA*eA*e[5mC]) | 1.2 |
| CO-3581: ASO targeting the Grn promoter (− strand) (antisense e[5mC]*eG*e[5mC]*e[5mC]*e[5mC]*eT*eT*eG*eA*eA*e[5mC]*e[5mC]*eT*eT*eT*eA*eT*eT*eA*eG) | 1.1 |
| CO-3582: ASO targeting the Grn promoter (− strand) (antisense e[5mC]*eA*e[5mC]*eA*eT*e[5mC]*eT*eA*e[5mC]*eA*eG*eT*eG*e[5mC]*e[5mC]*e[5mC]*eG*eG*eT*eA) | 1.1 |
| CO-3583: ASO targeting the Grn promoter (− strand) (antisense eT*e[5mC]*e[5mC]*e[5mC]*e[5mC]*e[5mC]*e[5mC]*eA*eG*eT*eT*eT*eG*eA*eG*e[5mC]*e[5mC]*eA*eA*eT) | 1.2 |
| CO-3584: ASO targeting the Grn promoter (− strand) (antisense eG*e[5mC]*eT*eT*e[5mC]*eA*eA*eT*eT*eT*eA*eA*eT*eG*e[5mC]*eA*eG*eT*eG*e[5mC]) | 1.1 |
